Data as given in article PMC8546056 (Nature Communications, 2021).

What was measured:
B/Malaysia/2506/2004 NA = tested on: T1, B/Malaysia/2506/2004 NA; format: biochemical, Influenza B virus
T1 construct: recombinant NA secreted from High Five insect cells (baculovirus); N-terminal VASP tetramerization domain

WSEIV NA = WSEIV NA (Wuhan spiny eel influenza virus, UniProt A0A2P1GNP4); format: biochemical
[1] = tested on: CC(=O)N[C@H]1[C@H]([C@H](O)[C@H](O)CO)O[C@](Oc2ccc3c(C)cc(=O)oc3c2)(C(=O)O)C[C@@H]1O; test: purified protein; details: 37.0 °C

CC(=O)N[C@H]1[C@H]([C@H](O)[C@H](O)CO)O[C@](Oc2ccc3c(C)cc(=O)oc3c2)(C(=O)O)C[C@@H]1O [MUNANA, 4-methylumbelli-feryl N-acetyl-α-D-neuraminic acid]
Km (B/Malaysia/2506/2004 NA): 137 ± 23.7 µM

CCOC(=O)C1=C[C@@H](OC(CC)CC)[C@H](NC(C)=O)[C@@H](N)C1 [oseltamivir]
dose-dependent inhibition (WSEIV NA): The WSEIV NA was sensitive to oseltamivir

WSEIV NA (Wuhan spiny eel influenza virus)
Km [1]: 118.5 ± 18.3 µM
